The values that follow come from ChEMBL document CHEMBL1145861, “Selective protein tyrosine phosphatase 1B inhibitors: targeting the second phosphotyrosine binding site with non-carboxylic acid-containing ligands” (J Med Chem, 2003).

Assay [1] has as its target T1, Tyrosine-protein phosphatase non-receptor type 1 (Homo sapiens, UniProt P18031).
T1 sequence (P18031 whole entry): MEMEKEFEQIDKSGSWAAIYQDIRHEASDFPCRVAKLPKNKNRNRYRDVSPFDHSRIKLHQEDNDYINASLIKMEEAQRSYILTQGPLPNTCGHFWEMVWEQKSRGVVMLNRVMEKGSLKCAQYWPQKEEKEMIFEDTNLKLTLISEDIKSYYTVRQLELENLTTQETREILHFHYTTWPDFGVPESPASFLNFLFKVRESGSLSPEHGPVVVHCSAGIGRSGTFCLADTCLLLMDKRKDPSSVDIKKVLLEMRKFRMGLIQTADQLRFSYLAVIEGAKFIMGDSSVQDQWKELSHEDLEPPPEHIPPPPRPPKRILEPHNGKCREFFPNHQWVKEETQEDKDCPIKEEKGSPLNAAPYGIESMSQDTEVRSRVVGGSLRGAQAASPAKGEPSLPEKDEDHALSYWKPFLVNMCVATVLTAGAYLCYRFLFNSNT
In words: Protein-tyrosine phosphatase 1B (PTP 1B) site 2 Ligands were identified using [13C]-labeled protein and their Dissociation Constants were determined.

In assay [2] the target is Tyrosine-protein phosphatase non-receptor type 2 (Homo sapiens, UniProt P17706). In words: Inhibitory constant against T cell protein tyrosine phosphatase. It counts as single protein.
Sequence of Tyrosine-protein phosphatase non-receptor type 2 (P17706 whole entry, looked up): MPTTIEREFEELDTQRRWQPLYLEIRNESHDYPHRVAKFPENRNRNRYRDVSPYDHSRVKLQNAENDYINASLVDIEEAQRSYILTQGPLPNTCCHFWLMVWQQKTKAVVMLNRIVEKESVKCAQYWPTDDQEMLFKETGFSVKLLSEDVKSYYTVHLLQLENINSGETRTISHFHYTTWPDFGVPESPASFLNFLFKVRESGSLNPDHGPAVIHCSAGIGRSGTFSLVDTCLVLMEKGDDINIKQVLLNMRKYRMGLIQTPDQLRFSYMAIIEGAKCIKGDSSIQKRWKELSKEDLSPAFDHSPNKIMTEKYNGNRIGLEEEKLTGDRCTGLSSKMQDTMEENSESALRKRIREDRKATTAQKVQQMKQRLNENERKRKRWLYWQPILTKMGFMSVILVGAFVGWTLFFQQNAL
Assay [3] concerns the target T1, Tyrosine-protein phosphatase non-receptor type 1. In words: Inhibitory activity against Protein-tyrosine phosphatase 1B (PTP 1B) was determined.
Assay [4] deals with T2, M-phase inducer phosphatase 3 (Homo sapiens, UniProt P30307).
T2 sequence (P30307 whole entry): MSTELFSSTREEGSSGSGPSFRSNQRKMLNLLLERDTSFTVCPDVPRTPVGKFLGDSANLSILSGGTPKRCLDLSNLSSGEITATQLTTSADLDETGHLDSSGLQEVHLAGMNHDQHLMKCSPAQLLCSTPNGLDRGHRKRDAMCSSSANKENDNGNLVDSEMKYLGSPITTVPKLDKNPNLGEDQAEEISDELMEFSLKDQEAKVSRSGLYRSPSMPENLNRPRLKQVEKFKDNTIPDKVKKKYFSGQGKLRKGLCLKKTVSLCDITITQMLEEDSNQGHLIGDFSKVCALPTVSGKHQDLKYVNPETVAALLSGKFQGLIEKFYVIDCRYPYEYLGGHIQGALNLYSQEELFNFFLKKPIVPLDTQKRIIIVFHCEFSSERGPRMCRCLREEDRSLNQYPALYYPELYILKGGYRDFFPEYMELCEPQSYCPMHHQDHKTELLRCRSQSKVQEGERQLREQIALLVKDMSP
In words: Inhibitory activity against cell division cycle 25 degree C (Cdc25 C) was determined.

For assay [5], the target named is T3, Receptor-type tyrosine-protein phosphatase C (Homo sapiens, UniProt P08575).
T3 sequence (P08575 whole entry): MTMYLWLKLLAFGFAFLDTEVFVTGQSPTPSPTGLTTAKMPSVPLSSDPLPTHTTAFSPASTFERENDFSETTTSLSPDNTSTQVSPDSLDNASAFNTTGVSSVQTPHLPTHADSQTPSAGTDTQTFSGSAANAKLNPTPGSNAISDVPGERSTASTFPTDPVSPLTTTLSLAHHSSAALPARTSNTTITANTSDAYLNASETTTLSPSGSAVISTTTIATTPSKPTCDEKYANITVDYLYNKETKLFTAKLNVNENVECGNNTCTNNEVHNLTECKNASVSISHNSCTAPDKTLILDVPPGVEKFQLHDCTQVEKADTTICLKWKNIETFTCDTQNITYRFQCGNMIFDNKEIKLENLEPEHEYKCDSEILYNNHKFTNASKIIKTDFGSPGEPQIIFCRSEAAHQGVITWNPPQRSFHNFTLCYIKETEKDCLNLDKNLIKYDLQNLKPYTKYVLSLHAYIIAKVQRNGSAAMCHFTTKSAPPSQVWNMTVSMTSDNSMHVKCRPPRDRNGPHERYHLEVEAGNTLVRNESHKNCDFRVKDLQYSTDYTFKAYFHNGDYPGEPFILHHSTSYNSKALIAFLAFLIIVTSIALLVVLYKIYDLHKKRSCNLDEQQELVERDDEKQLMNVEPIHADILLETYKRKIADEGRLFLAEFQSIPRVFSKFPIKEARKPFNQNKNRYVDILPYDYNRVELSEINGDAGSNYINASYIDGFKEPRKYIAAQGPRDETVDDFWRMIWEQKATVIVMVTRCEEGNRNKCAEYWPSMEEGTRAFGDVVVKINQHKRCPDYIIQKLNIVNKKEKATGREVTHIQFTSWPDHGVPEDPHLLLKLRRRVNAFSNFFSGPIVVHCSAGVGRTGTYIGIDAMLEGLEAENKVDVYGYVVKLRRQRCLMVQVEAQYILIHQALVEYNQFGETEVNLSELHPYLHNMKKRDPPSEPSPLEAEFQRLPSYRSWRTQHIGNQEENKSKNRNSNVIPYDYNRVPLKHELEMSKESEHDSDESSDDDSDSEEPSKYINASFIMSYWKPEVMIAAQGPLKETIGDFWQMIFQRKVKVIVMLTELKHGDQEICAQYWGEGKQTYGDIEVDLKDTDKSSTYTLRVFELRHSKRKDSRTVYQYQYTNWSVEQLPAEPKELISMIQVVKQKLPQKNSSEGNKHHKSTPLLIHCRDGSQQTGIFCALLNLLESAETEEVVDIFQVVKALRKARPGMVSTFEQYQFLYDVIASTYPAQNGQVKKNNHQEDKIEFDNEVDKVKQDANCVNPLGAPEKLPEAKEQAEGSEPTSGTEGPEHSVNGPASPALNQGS
In words: Inhibitory activity against CD45 tyrosine phosphatase was determined.

For assay [6], the target named is Protein phosphatase 3 catalytic subunit alpha (Homo sapiens, UniProt Q08209). In words: Inhibitory activity against (calcineurin) was determined.
The nature of assay [7]: Inhibitory activity against Leukocyte antigen related Tyrosine Phosphatase (Receptor linked protein tyrosine phosphatase LAR) was determined.
Assay [8] deals with T2, M-phase inducer phosphatase 3. In words: Inhibitory activity against Cell division cycle 25 degree C was determined.

The structures appear in SMILES notation.

A word on the Kd: it is the constant that tells how readily two partners part at equilibrium. A high value points to lower affinity. As usually defined, the Ki is a measure of affinity in units of concentration, obtained from inhibition or displacement.

`Cc1cc(C)c2nc(C(=O)O)ccc2c1O` gave a Kd in assay [1] of 15.6 mM.
`CCc1cc(CC(NC(C)=O)C(=O)NCCCCOc2cccc(O)c2C(=O)OC)ccc1N(C(=O)C(=O)O)c1ccccc1C(=O)O` (stereo not drawn) gave a Ki in assay [2] of 65 nM.
As for `CCc1cc(CC(NC(C)=O)C(=O)NCCCCOc2cccc(O)c2[N+](=O)[O-])ccc1N(C(=O)C(=O)O)c1ccccc1C(=O)O` (stereo not drawn), the figures for the Ki in assay [2] and in assay [3] were 120 nM and 130 nM, respectively.
`CCc1cc(CC(NC(C)=O)C(=O)NCCCCOc2ccccc2C(=O)OC)ccc1N(C(=O)C(=O)O)c1ccccc1C(=O)O` (stereo not drawn): the values for the Ki in assay [2] and in assay [3] were 860 nM and 1600 nM, respectively.
The like results for `CCc1cc(CC(NC(C)=O)C(=O)NCCCCOc2cccc(O)c2C(=O)NC)ccc1N(C(=O)C(=O)O)c1ccccc1C(=O)O` (stereo not drawn) were, in that order, 830 nM and 370 nM.
In the case of `N#Cc1cc(C(=O)O)c(O)c(Br)c1N`, the Kd in assay [1] worked out at 0.91 mM.
Consider `CCc1cc(CC(NC(C)=O)C(=O)NCCCCOc2cc(Cl)cc(O)c2C(=O)OC)ccc1N(C(=O)C(=O)O)c1ccccc1C(=O)O` (stereo not drawn), for which the Ki in assay [4] is > 3 µM; in assay [5] it was > 3 µM; in assay [6], > 3 µM; in assay [2] it was 230 nM; in assay [3] it was 40 nM; in assay [7], > 3 µM.
Take `CCc1cc(CC(NC(C)=O)C(=O)NCCCCOc2cccc(O)c2C(=O)O)ccc1N(C(=O)C(=O)O)c1ccccc1C(=O)O` (stereo not drawn): the Ki amounted to 73 nM in assay [2] and 42 nM in assay [3].
For the compound `C=CCOC(=O)N[C@@H](Cc1ccc(N(C(=O)C(=O)O)c2ccccc2C(=O)O)cc1)C(=O)NCCCCOc1cccc(O)c1C(=O)OC`, the Ki in assay [5] was > 200 µM; in assay [6], > 200 µM; in assay [2], 470 nM; in assay [8], 178 µM; in assay [7] it was 33 µM.
With `NC(=O)[C@H](Cc1ccc(C(F)(F)P(=O)(O)O)cc1)NC(=O)[C@H](CC(=O)O)NC(=O)Cc1ccc(C(F)(F)P(=O)(O)O)cc1`, the affinity in assay [2], expressed as Ki, was 24 nM.
As for `CCc1cc(CC(NC(C)=O)C(=O)NCCCCOc2ccc(-c3ccccc3)c(O)c2C(=O)OC)ccc1N(C(=O)C(=O)O)c1ccccc1C(=O)O` (stereo not drawn), the Ki was found to be 840 nM in assay [2] and 560 nM in assay [3].
`CCc1cc(CC(NC(C)=O)C(=O)NCCCCOc2ccc(Br)c(O)c2C(=O)OC)ccc1N(C(=O)C(=O)O)c1ccccc1C(=O)O` (stereo not drawn): the Ki in assay [2] is 2600 nM; in assay [3], 390 nM.
In the case of `Nc1ccc(C(=O)O)c(O)c1` [AMINOSALICYLIC ACID], in assay [1], binding was characterised by a dissociation constant (Kd) of 1.2 mM.
